Measured values: US12292380B2, “Integrated microfluidic device for capture and spectroscopic characterization of live cells under various treatment conditions” (CORNELL UNIVERSITY, priority 2018, dated 2025)

Experiments:
A431 cells [1] = experiment: MEIRS measurement of the response of A431 cells to epidermal growth factor, PCA of reflectance spectra; assay type: cell-based; conditions: 40 nM EGF injected at t=240 min, time resolution 1 min
Procedure: (§1) The following method is used for monitoring a drug's effect of the cells. The method can be implemented using the same or similar detection unit 100, detection device 300, and detection system 10, as described above and shown in FIGS. 1 and 2-12. First, the metasurface 102 is assembled with the microfluidic chamber 302, and the cells are seeded on the metasurface 102 in culture media. The cells are then incubated until they are well-adhered on the metasurface 102. The metasurface 102 (with cells) is then transferred to a FTIR microscope 20 for continuous collection of IR spectra. […]
Referring briefly to FIG. 25, there are shown graphs of the resulting PCA scores/loadings obtained from A431 cells with the addition of epidermal growth factor (EGF). […] Specifically, 40 nM EGF was injected to the microfluidic measurement chamber 302 at t=240 min., while continuously monitored with time resolution of Δt=1 min. The measured reflectance spectra were analyzed using PCA. […] Although the biological interpretation of such signal is still not clear, it is hypothesized that the measured response corresponds to at least two processes in the cell, likely related to the cells' cytoskeletal reorganization in response of EGF.

A431 cells [2] = experiment: MEIRS monitoring of trypsinization (detachment of adherent cells from the metasurface), PCA of reflection spectra; assay type: cell-based; conditions: 0.025% trypsin at t=66 min, between t=66 min and t=100 min, time resolution 1 min
Procedure: as §1, with “spectra. Background spectra of the cells are collected for some time, before the drug to be tested is introduced to the cells via a microfluidic pump (such as a syringe pump 20 like that shown in FIG. 12).” for “spectra.”
Referring briefly to FIG. 24, there are shown contrast microscopy images of A431 cells on the metasurface 102 and graphs of the resulting PCA scores/loadings obtained from their spectra. The most robust adhesion-related effects, such as trypsinization (i.e., the detachment of adherent cells from the metasurface 102 by application of trypsin, a proteolytic enzyme that breaks down adhesion proteins), can be easily detected using MEIRS. […] Reflection spectra were analyzed using principal components analysis (PCA). […]

Row | Substance | PC1 score response to EGF (A431 cells [1]) | time for PC2 score to recover to the baseline level before the EGF injection (A431 cells [1]) | time evolution of the PC1 score (cell detachment from the metasurface) (A431 cells [2])
1 | epidermal growth factor (NSDSECPLSHDGYCLHDGVCMYIEALDKYACNCVVGYIGERCQYRDLKWWELR; Epidermal growth factor; UniProt P01133 971-1023, looked up) [EGF, epidermal growth factor (EGF)] | permanent change to the cell | about 200 min | 
2 | trypsin |  |  | rapid detachment of the cells
